US20240148749A1 (priority 2021, published 2024)

System: CLP mice
Experiment: Survival after cecal ligation and puncture (CLP) model of sepsis
Type: in vivo, mouse
Procedure: A log-rank (Mantel-Cox) p value for trend was calculated.
We used peritonitis induced by CLP as a model of sepsis (Rittirsch et al., 2009). Briefly, animals were anesthetized with ketamine (Imalgene® 1000 100 mg/kg, Merial, France) and Xylazine (Rompun® 2% 20 mg/kg, Bayer, Germany) prior to surgery. After laparotomy, caecum was ligatured at the distal third with a 4.0 suture and the distal part was perforated twice with a 21 Gauge needle.
For use it is dissolved following the guidance provided by the manufacturer.
Clinical score was assessed 6, 12 and 24 hours and 21 days after CLP using a modified SmithKline Beecham, Harwell, Imperial College and Royal London Hospital phenotype assessment (SHIRPA) (Rogers et al., 1997) of the maximum score of fourteen. Weight, temperature and locomotor activity using an open field box were measured at the same time points. We determined survival rate twice a day for 21 days after CLP. The symptoms included in the a modified SmithKline Beecham, Harwell, Imperial College and Royal London Hospital phenotype assessment (SHIRPA) are tremors, periorbital exudates, piloerection, lethargy, vocalisation, positional passivity, no escapement to threat, long transfer arousal and diarrhoea. Each condition was scored from 0 to 2.
Experimental protocols were conducted in accordance with the French and European regulations on Animal Welfare and with Public Health Service recommendations. The experiments were performed on C57BL/6JRj mice (male and female) purchased from Janvier Laboratory. Mice were housed in cages in groups of 7, in a temperature (22±1.5° C.) and humidity-controlled environment, with a 12 h light/dark cycle. All animals used in the study were between 10 and 12 weeks old. Sample-size estimates for animal experiments were based on prior animal-modelling studies used in the Unit for the investigation of caecal ligation and puncture (CLP).
At the end, two groups were compared: CLP-Placebo, CLP-BMX-010. We determined survival rate twice a day for 4 days after CLP.”

CC[n+]1ccccc1-c1c2nc(c(-c3cccc[n+]3CC)c3ccc([nH]3)c(-c3cccc[n+]3CC)c3nc(c(-c4cccc[n+]4CC)c4ccc1[nH]4)C=C3)C=C2.[Mn+3] [BMX-010, manganese(III) 5,10,15,20-tetrakis(N-ethylpyridinium-2-yl) porphyrin] was tested, and the “survival of mice hours post-CLP (probability of survival over time) versus placebo” value (CLP experiment, FIG. 10) was “outperforms the placebo” and the “survival at 4 days post-CLP versus placebo” value (CLP mice, 2 mg/kg intra peritoneal every 12 hours during 48 hours (4 injections), N=12 mice C57BL6/group) was “more that doubles survival”.
